Source: PMC7509555, “An In Vitro Study for Evaluating Permeability and Metabolism of Kurarinone” (Evidence-based Complementary and Alternative Medicine : eCAM, 2020)
Where two headings read alike, the source gives them in different places.

Experiments:
[1] = system: minipig liver microsomes (PLMs); assay: Enzyme kinetics of P1 formation from kurarinone in PLMs; format: in vitro ADME
Protocol: (§1) Samples were prepared in a total volume of 200 μL, containing 0.3 mg/mL protein in human liver microsomes or 15 nM protein in recombinant human supersomes, probe substrates or 50 μM kurarinone, 10 mM MgCl2, 10 mM glucose-6-phosphate, and 1 unit/mL of glucose-6-phosphate dehydrogenase. The reactions were activated by adding NADPH following preincubation at 37°C for 5 min. The reactions were maintained at 37°C for 1 h and terminated by adding 200 μL ice-cold acetonitrile. The supernatant (10 μL) collected from the samples that were centrifuged (20,000 g, 20 min, 4°C) was injected into the HPLC system for analysis. Control incubations devoid of NADPH or kurarinone were performed parallelly to ensure that the produced metabolites were NADPH- or kurarinone-dependent.
(§2) Various concentrations of kurarinone (1–200 μM) were incubated with RLMs, MLMs, PLMs, RAMs, CYP1A2, and CYP2D6 to estimate kinetic parameters. The rest of the other conditions remained the same as described in Section 2.3. […] The apparent Km and Vmax values were calculated from nonlinear regression analysis of experimental data according to the Michaelis–Menten equation, and the results were represented graphically by Eadie–Hofstee plots. All incubations were carried out as triplicate independent experiments, and kinetic constants were recorded as mean ± SD.

[2] = Prediction of in vivo hepatic clearance in human from HLM kinetics; format: in vitro ADME
Source text: (§3) The following equations were utilized to predict the in vivo hepatic clearance of kurarinone in humans and rats.(1) CLint in vitro=Vmax/Km, (2) […], (3) CLH=QH·fu·CLint in/QH+fu·CLint in vivo, where the SF (scaling factor) represents the milligrams of microsomal protein per gram of the liver multiplied by the grams of liver weight; CLint is the intrinsic metabolic clearance; CLH is hepatic clearance; fu is the free fraction in the blood (no data were available for kurarinone; thus, fu was arbitrarily proposed to be 1); and QH is the hepatic blood flow. The CLH of kurarinone was calculated using equations (1)–(3).

CYP2C9 = assay: Inhibition of CYP2C9 activity (diclofenac probe) in RLMs; format: in vitro ADME; settings: rat, rat liver microsomes, probe diclofenac 10 μM, 100 μM kurarinone, 10 μM diclofenac
Protocol: as §1
RLMs were used to assess the inhibitory effects of kurarinone (100 μM) on six different human isoforms (CYP1A2, CYP2C9, CYP2D6, CYP2E1, CYP3A4, and CYP2C19). The probe substrates used in this experiment were 40 μM phenacetin for CYP1A2, 10 μM diclofenac for CYP2C9, 25 μM dextromethorphan for CYP2D6, 120 μM chlorzoxazone for CYP2E1, 35 μM testosterone for CYP3A4, and 20 μM (S)-mephenytoin for […] as described earlier. The reaction system has been described in Section 2.3. […]

[3] = system: monkey liver microsomes (MLMs); assay: Enzyme kinetics of P1 formation from kurarinone in MLMs; format: in vitro ADME
Protocol: as §1, §2

CYP1A2 = molecular target: T1, CYP1A2 (Rattus norvegicus, UniProt P04799); assay: Inhibition of CYP1A2 activity (phenacetin O-deethylation) in RLMs; format: in vitro ADME
T1 construct: tissue Research Institute for Liver Disease Co., Ltd. (Shanghai, China); host or cells: pooled rat liver microsomes
T1 sequence (P04799 2-513): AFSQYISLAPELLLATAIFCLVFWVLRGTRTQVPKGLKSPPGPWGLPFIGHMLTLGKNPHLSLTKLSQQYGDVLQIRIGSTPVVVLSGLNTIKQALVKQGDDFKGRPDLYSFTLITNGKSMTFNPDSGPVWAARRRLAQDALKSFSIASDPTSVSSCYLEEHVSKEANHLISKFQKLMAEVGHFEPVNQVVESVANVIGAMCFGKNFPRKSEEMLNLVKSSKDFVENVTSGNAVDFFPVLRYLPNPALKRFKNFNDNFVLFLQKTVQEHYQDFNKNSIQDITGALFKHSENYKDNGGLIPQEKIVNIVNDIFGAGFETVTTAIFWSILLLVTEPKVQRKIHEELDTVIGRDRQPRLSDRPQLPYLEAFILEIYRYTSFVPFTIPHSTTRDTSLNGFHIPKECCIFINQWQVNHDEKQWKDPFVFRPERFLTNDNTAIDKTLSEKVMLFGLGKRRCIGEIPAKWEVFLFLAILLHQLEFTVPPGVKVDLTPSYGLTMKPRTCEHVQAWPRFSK
Protocol: as §1
RLMs were used to assess the inhibitory effects of kurarinone (100 μM) on six different human isoforms (CYP1A2, CYP2C9, CYP2D6, CYP2E1, CYP3A4, and CYP2C19). The probe substrates used in this experiment were 40 μM phenacetin for CYP1A2, 10 μM diclofenac for CYP2C9, 25 μM dextromethorphan for CYP2D6, 120 μM chlorzoxazone for CYP2E1, 35 μM testosterone for CYP3A4, and 20 μM (S)-mephenytoin for […] as described earlier. The reaction system has been described in Section 2.3. […] Dixon and Lineweaver–Burk plots were formed to confirm the reversible inhibition type, and a second plot of slopes from the Lineweaver–Burk plot over the concentrations of kurarinone was used to estimate the Ki value. All incubations were performed in triplicates, and mean values were used for analysis.

PAMPA permeability study = format: in vitro ADME; settings: for Papp at 5 h: PAMPA, room temperature, read-out: PAMPA effective permeability Pe
Protocol: The PAMPA method was used to measure the membrane permeability values, as described by Singh et al. in an earlier study. Drug samples were dissolved in DMSO and then diluted to 10 mM concentrations as a stock solution. 300 μL diluted drugs solution was filled in the PAMPA plate as the “donor” wells, and the 96-well filter plate with a synthetic phospholipid membrane was then placed on the donor wells. The “acceptor” wells were filled with 200 μl of buffer solution, and the PAMPA instruments were incubated at room temperature for 5 h. Kurarinone permeability was assessed in quadruplicate at pH 4.0 and 7.4. […] At the end of the incubation, kurarinone and the marker compounds in the donor and acceptor wells were determined by HPLC, and permeability was calculated.

[4] = system: human liver microsomes (HLMs); assay: Enzyme kinetics of P1 formation from kurarinone in HLMs; format: in vitro ADME
[5] = set-up: method as in PMID 25703950; settings: rats, cited from earlier work
[6] = Prediction of in vivo hepatic clearance in rat from RLM kinetics; format: in vitro ADME
Source text: as §3

HL-7702 cells = settings: cited from earlier work

- Vmax of P1 formation [1]: 8.46 ± 0.74 nmol·min^−1·mg^−1 protein
- Km ([1]; kurarinone 1–200 μM): 49.9 ± 7.91 µM
- percentage of CLH versus hepatic blood flow (QH) ([2]; human): 81.27%
- predicted hepatic clearance CLH ([2]; humans, from HLM kinetic parameters of P1, fu assumed 1): 16.82 mL/min/kg
- clearance category based on CLH projected from in vitro data ([2]; in humans, high-clearance = >70% liver blood flow): high-clearance
- inhibition at 1 h, 100 μM (CYP2C9): > 90%
- Vmax of P1 formation [3]: 4.83 ± 0.14 nmol·min^−1·mg^−1 protein
- Km ([3]; kurarinone 1–200 μM): 21 ± 3.42 µM
- inhibition type against CYP1A2 (CYP1A2; Dixon and Lineweaver–Burk plots): competitive
- IC50 (CYP1A2; phenacetin O-deethylation, RLMs, read-out: IC50 against CYP1A2): 10 µM
- inhibition at 1 h, 100 μM (CYP1A2; rat, rat liver microsomes, probe phenacetin 40 μM (O-deethylation), 100 μM kurarinone, 40 μM phenacetin, RLMs): > 90%
- Ki (CYP1A2; second plot of slopes from Lineweaver–Burk plots, RLMs): 8.13 µM
- Papp at 5 h (PAMPA permeability study; pH = 4): 3.87 ± 1.39 ×10⁻⁶ cm/s
- Papp at 5 h (PAMPA permeability study; pH = 7): 2.14 ± 0.82 ×10⁻⁶ cm/s
- PAMPA permeability class (PAMPA permeability study; pH 4.0 and 7.4): moderate permeability
- Vmax of P1 formation [4]: 1.56 ± 0.24 nmol·min^−1·mg^−1 protein
- Km ([4]; kurarinone 1–200 μM): 22 ± 4.93 µM
- percentage of CLH versus hepatic blood flow (QH) ([6]; rat): 83.35%
- predicted hepatic clearance CLH ([6]; rats, from RLM kinetic parameters of P1, fu assumed 1): 46.01 mL/min/kg body weight
SMILES: C=C(C)[C@H](CC=C(C)C)Cc1c(O)cc(OC)c2c1O[C@H](c1ccc(O)cc1O)CC2=O [Kurarinone]
- t1/2 ([5]; intravenous 10 mg/kg): 1.81 h
- Cmax [5]: 1668.01 ng/mL
- cytotoxicity (HL-7702 cells): remarkable cytotoxicity
